This note sets out measurements from ChEMBL document CHEMBL3046732, “Synthesis and biological evaluation of new [1,3,4]thiadiazepino[7,6-b]quinolin-2-amines as potent anti-microbial agents” (2013).

For one assay, the system named is Aspergillus flavus. The experiment in a line: Antimicrobial activity against Aspergillus flavus assessed as growth inhibition by microdilution method. The class given is functional. (Broth dilution looks for growth in wells or tubes with falling amounts of substance.)
The subject of another assay is Alternaria alternata. The assay can be described thus: Antimicrobial activity against Alternaria alternata assessed as growth inhibition by microdilution method. The format is functional.
A further assay has as its system Bacillus subtilis. The experiment in a line: Antimicrobial activity against Bacillus subtilis assessed as growth inhibition by microdilution method.
The test system of the next assay is Salmonella typhimurium. The assay can be described thus: Antimicrobial activity against Salmonella enterica subsp. enterica serovar Typhimurium assessed as growth inhibition by microdilution method.
For the next assay, the system named is Escherichia coli. The assay can be described thus: Antimicrobial activity against Escherichia coli assessed as growth inhibition by microdilution method.
Another assay concerns Klebsiella aerogenes. The experiment in a line: Antimicrobial activity against Enterobacter aerogenes assessed as growth inhibition by microdilution method.
A further assay relates to Staphylococcus aureus. The experiment in a line: Antimicrobial activity against Staphylococcus aureus assessed as growth inhibition by microdilution method.
Another assay relates to Curvularia australiensis. The assay can be described thus: Antimicrobial activity against Curvularia australiensis assessed as growth inhibition by microdilution method. The format is functional.
For another assay, the system named is Aspergillus niger. The experiment in a line: Antimicrobial activity against Aspergillus niger assessed as growth inhibition by microdilution method. The class given is functional.
A further assay deals with Streptococcus pyogenes. The experiment in a line: Antimicrobial activity against Streptococcus pyogenes assessed as growth inhibition by microdilution method.
The test system of the next assay is Trichoderma reesei. The experiment in a line: Antimicrobial activity against Trichoderma reesei assessed as growth inhibition by microdilution method. The class given is functional.

The structures appear in SMILES notation.

Usually MIC stands for the lowest concentration that inhibits growth of the organism. Consider `Cc1cccc2cc3c(nc12)SC(Nc1ccc(F)cc1)=NN=C3`, for which the MIC was determined as 1000 µg/mL with Aspergillus flavus; 500 µg/mL in the assay with Alternaria alternata; 500 µg/mL with Bacillus subtilis; 500 µg/mL with Salmonella typhimurium; 250 µg/mL with Escherichia coli; 500 µg/mL with Klebsiella aerogenes. In addition, the MIC is 250 µg/mL in the assay with Staphylococcus aureus; 1000 µg/mL with Curvularia australiensis; 1000 µg/mL in the assay on Aspergillus niger; 250 µg/mL in the assay with Streptococcus pyogenes; 500 µg/mL in the assay on Trichoderma reesei.
In the case of `Cc1c(Cl)ccc2cc3c(nc12)SC(Nc1cccc(Cl)c1)=NN=C3`, the MIC in the assay with Aspergillus flavus came out at 500 µg/mL; in the assay with Alternaria alternata, 500 µg/mL; in the assay on Bacillus subtilis, 125 µg/mL; in the assay on Salmonella typhimurium, 1000 µg/mL; in the assay on Escherichia coli, 60 µg/mL; in the assay with Klebsiella aerogenes it was 1000 µg/mL. Further, the MIC with Staphylococcus aureus came to 500 µg/mL; in the assay with Curvularia australiensis, 1000 µg/mL; with Aspergillus niger, 500 µg/mL; with Streptococcus pyogenes, 125 µg/mL; in the assay on Trichoderma reesei, 250 µg/mL.
